The values below come from patent US20100047221A1, “COMPOSITIONS COMPRISING PYRUVATE ALKYL ESTERS AND USES THEREOF” (priority 2006, published 2010).

The nature of series [1]: Stability in solution at room temperature, judged by appearance and taste. In kind it is physicochemical. The conditions noted are these: room temperature (about 50 to 90 degrees F.); judged by appearance (color) and taste. The text has this: Without wishing to be bound by theory, it is believed that methyl esters of pyruvic acid are more susceptible to hydrolysis in aqueous solution than are corresponding ethyl esters, which hydrolysis results in the production of pyruvic acid. Pyruvic acid, and the anion thereof, can then react by mechanisms well known in the art, to form a plethora of higher molecular compounds.

Series [2] in a line: Post-surgical oral ingestion by a patient with gastrointestinal inflammation. In kind it is in vivo, human. The settings on record: about 3x500 mL per day. As for the experimental part: The patient had developed gastrointestinal inflammation and could not tolerate food by mouth for several days post-operative. Furthermore, bowel movements were frequent, watery and bloody, and were accompanied by lower abdominal pain. The patient self administered oral ethylpyruvate (about 3×500 mL per day daily for 1 week of an ethylpyruvate solution in commercial bottled spring water at 0.06 weight-percent ethylpyruvate). Within 3 hours of the initial dosing, persistent pain, hyperactive bowel and diarrhea resolved. The patient additionally reported an improved mood following oral ingestion of ethylpyruvate.

Series [3] in a line: Gastric reflux (heartburn) in the taste assessment experiment. The conditions noted are these: panel of 10 individuals; about 30 ml liquid composition, oral. Type of series: in vivo, human. As for the experimental part:
(§1) A panel of 10 individuals ingested a liquid composition (about 30 ml) at room temperature comprising ethylpyruvate (about 1 weight-percent) to provide a taste assessment. The panel was additionally provided a corresponding liquid composition of methylpyruvate (i.e., methyl ester of pyruvic acid) for comparative tasting. […] Without wishing to be bound by theory, it is believed that the sour taste associated with methylpyruvate results from hydrolysis of methylpyruvate within the sample to pyruvic acid, with the associated source taste of an acid. In contrast, the taste associated with ethylpyruvate appears to reflect a lack of hydrolysis to pyruvic acid in the sample.
In the taste assessment experiment (Example 2), gastric reflux (i.e., “heartburn”) was a considerable problem (i.e., 5 of 10 individuals reporting such) with methylpyruvate, but none reporting similar reaction with ethylpyruvate.

The nature of series [4]: Athlete oral ingestion before and during daily workouts. The settings on record: 12 athletes, 4x500 mL per day, about 0.06 weight-percent in water, four days. Type of series: in vivo, human. How it is done: A group of 12 athletes (19-22 years of age) self-administered oral ethylpyruvate in solution (4×500 mL ingested per day of a solution of about 0.06 weight-percent ethylpyruvate in water) before and during daily workouts (approximately 2 hours duration) for four days. The athletes having ingested oral ethylpyruvate reported less fatigue at the end of each workout, and similar favorable reports continued each day for the four days of practice.

Series [5] in a line: Mood enhancement before and after ingestion in the taste assessment experiment. Type of series: in vivo, human. The settings on record: about 1 weight-percent. As for the experimental part:
as §1
In the taste assessment experiment (Example 2), mood was assessed before and after ingestion of the liquid composition comprising ethylpyruvate. […] This mood enhancement commenced at between 5 and 15 minutes and lasted over 6 hours. In one case, the individual stated that the usual afternoon cup of coffee would not be necessary that day due to the ingestion of the composition.

Turning to `CCOC(=O)C(C)=O` [ethylpyruvate], the “stability in solution versus the methyl ester of pyruvic acid” value in series [1] is recorded as “higher stability”. Further, the “time from initial dosing to resolution of persistent pain, hyperactive bowel and diarrhea” value in series [2] (one patient after surgery and radiation for gastrointestinal carcinoma, 0.06 weight-percent in spring water) was not above 3 h. Besides, the “mood reported by the patient” value in series [2] (one patient, 0.06 weight-percent, 1 week) is “improved mood”. In addition, the “individuals reporting gastric reflux (heartburn)” value in series [3] is given as “none”. For the same compound, in series [4] (each subject), the “performance in high-activity training regimens (wind sprints) versus sessions prior to ingestion” value is recorded as “better performance”. In addition, in series [4], the “fatigue at the end of each workout” value is listed as “less fatigue”. In addition, the “duration of mood enhancement” value in series [5] (after ingestion of about 30 ml) is reported as “over 6 hours”. Also, the mood after ingestion result in series [5] (each of 10 individuals, about 30 ml, oral) is “increase in feelings of well-being and energy”.
